Measured values taken from patent US7705053B2, “Benzamide derivative” (Chugai Seiyaku Kabushiki Kaisha, priority 2003, dated 2010).

Tests used:
HUVEC = test: Tube formation assay; assay type: cell-based; conditions: Homo sapiens, 264 h, 11 days of incubation, CD31 staining, read-out: capillary-like tube formation inhibition rates (%)
Procedure: An angiogenesis measurement kit (produced by KURABO) was charged with the test compound at final concentration of 20 μM, and incubated in a CO2 incubator (37° C., 5%). After 11 days of incubation, capillary-like tubes formed were fixed with 70% ethanol and visualized with a CD31 staining kit (produced by KURABO). Under a microscope, stain images of the wells were photographed, stored as an image file, and measured for the area of capillary-like tube formation by use of angiogenesis quantitative determination software of KURABO. The inhibition rates (%) of the test compound-charged wells were calculated, with the control taken as 100%.
The capillary-like tube formation inhibiting rates at 20 μM, against HUVEC, of representative examples of the compounds of the present invention are shown in Table 2.

[1] = Body weight and toxicity findings in the antitumor test; assay type: in vivo; conditions: 600 mg/kg, orally once daily for 11 days
Procedure: (§1) A cell suspension of human lung carcinoma cell line Calu-6 was prepared using Hanks' balanced salt solution, and 5.0×10^6 of the cells were implanted subcutaneously in the flank region of female Balb/c nude mice. When the volume of the tumor reached 200 to 250 mm^3, the test compound was orally administered once daily for 11 days. The tumor volume was calculated from the equation π/6×(long diameter×short diameter×thickness). The tumor growth inhibition rate was calculated from changes in the tumor volume in the test compound treatment group relative to changes in the tumor volume in the control group.
(§2) The results of the antitumor test of compound 1-1-1 and compound 2-1-1, as representative examples of the compounds of the present invention, are shown in FIGS. 1-(A) and 1-(B) and 2-(A) and 2-(B).

[2] = test system: Human lung carcinoma cell line Calu-6; test: Cell proliferation assay (Calu-6); assay type: cell-based; conditions: Calu-6, 72 hours, WST-1, read-out: 50% growth inhibition concentration (IC50 value) Calu-6
Procedure: (§3) The test compound was serially diluted with DMSO, and then diluted 1:50 with a Ca^2+,Mg^2+-free phosphate-buffered physiological saline. The resulting dilution (10 μl) was dispensed into a 96-well plate. Human umbilical vein endothelial cells (HUVEC, purchased from Clonetics) were suspended in PRMI 1640 medium supplemented with 10% bovine fetal serum, 30 μg/mL vascular endothelial cell growth supplement, and 50 μg/mL heparin. Human lung carcinoma cell line Calu-6 was suspended in MEM medium supplemented with 10% bovine fetal serum, 0.1 mM nonessential amino acid, and 1 mM sodium pyruvate. Each cell suspension (190 μL) was dispensed into the plate containing the test compound such that the cell count per well was 3,000 cells. The plate was incubated in a CO2 incubator (37° C., 5% CO2). After 72 hours, 20 μL WST-1 (produced by Roche Diagnostics) was added to each well and, after 2 hours of incubation, the absorbance at 450 nm (reference wavelength: 650 nm) was measured. The 50% growth inhibition concentration (IC50 value) of the test compound was calculated from the inhibition rate obtained when the test compound was added, in comparison with the reference value obtained when the test compound was not added.
(§4) The IC50 values, for HUVEC and Calu-6, of representative examples of the compounds of the present invention are shown in Table 1.

[3] = test system: human lung carcinoma cell line Calu-6; test: Antitumor test (Calu-6 xenograft); assay type: in vivo, Balb/c nude mice; conditions: 600 mg/kg, orally once daily for 11 days, mice
Procedure: as §1, §2

[4] = test system: blood vessels in the tumor tissue (Calu-6 xenograft); test: Measurement of the number of blood vessels in the tumor; assay type: in vivo, Balb/c nude mice; conditions: 600 mg/kg, orally once daily for 11 days, mice, relative to control group
Description: Measurement of the Number of Blood Vessels in the Tumor
5.0×10^6 Cells of human lung carcinoma cell line Calu-6 were implanted subcutaneously in the flank region of female Balb/c nude mice. When the volume of tumor reached 200 to 250 mm^3, the test compound was orally administered once daily for 11 days. Twenty-four hours after the final administration, xenograft tissue was removed from the mice, and a middle portion of the long diameter of the tumor was embedded, as a block 2 to 3 mm thick, in O.C.T. Compound, and preserved as a frozen tissue specimen. Frozen sections were prepared, and blood vessels in the tumor tissue were stained by an immunohistological method using anti-mouse CD31 antibody. The stained tissue was photographed under a microscope, and the images were stored as an image file. The number of the stained blood vessels was measured by Image Pro (Promega). The decrease rate of blood vessel density was calculated as a decrease rate relative to the blood vessel density in the control group.
The decrease rates of the blood vessel density in the tumor tissue following treatment with 600 mg/kg of compound 1-1-1 and compound 2-1-1, as representative examples of the compounds of the present invention, are shown in Table 3.

[5] = test system: Human umbilical vein endothelial cells (HUVEC); test: Cell proliferation assay (HUVEC); assay type: cell-based; conditions: 72 hours, WST-1, read-out: 50% growth inhibition concentration (IC50 value) HUVEC
Procedure: as §3, §4

Row | SMILES | inhibition at 20 µM (HUVEC) [%] | body weights of the mice [1] | findings of toxicity [1] | IC50 [2] [nM] | tumor growth inhibition rates (TGI) [3] [%] | Decrease (%) in intratumor blood vessel density [4] [%] | IC50 [5] [nM]
1 | COc1ccc(C(N)=O)cc1C(=O)Nc1ccc(Cl)cc1 [Compound 1-1-1, 3-N-(4-chlorophenyl)-4-methoxyisophthalamide] | 43 | no decreases in the body weights of the mice were observed | no findings of toxicity observed | > 100000 | 82 | 44 | 2270
2 | COc1ccc(C(N)=O)cc1C(=O)Nc1ccc(OC(F)(F)F)cc1 [Compound 1-2-1, 3-N-(4-trifluoromethoxyphenyl)-4-methoxyisophthalamide] | 68 | – | – | > 100000 | – | – | 2400
3 | COc1ccc(C(N)=O)cc1C(=O)Nc1ccc(Br)cc1F [Compound 1-3-1, 3-N-(4-bromo-2-fluorophenyl)-4-methoxy-isophthalamide] | – | – | – | > 50000 | – | – | 190
4 | COc1ccc(C(N)=O)cc1C(=O)Nc1cccc(Cl)c1Cl [Compound 1-3-2, 3-N-(2,3-dichlorophenyl)-4-methoxyisophthalamide] | – | – | – | > 50000 | – | – | 150
5 | COc1ccc(C(N)=O)cc1C(=O)Nc1ccccc1OC(F)(F)F [Compound 1-3-5, 4-methoxy-3-N-(2-trifluoromethoxyphenyl)-isophthalamide] | 91 | – | – | > 50000 | – | – | 140
6 | COc1ccc(C(N)=O)cc1C(=O)Nc1cccc2c1CCCC2 [Compound 1-3-6, 4-methoxy-3-N-(5,6,7,8-tetrahydronaphthalen-1-yl)isophthalamide] | 46 | – | – | > 50000 | – | – | 240
7 | COc1ccc(C(N)=O)cc1C(=O)Nc1ccccc1Cl [Compound 1-3-7, 3-N-(2-chlorophenyl)-4-methoxyisophthalamide] | 67 | – | – | > 50000 | – | – | 280
8 | COc1ccc(C(N)=O)cc1C(=O)Nc1cccc(C(F)(F)F)c1F [Compound 1-3-8, 3-N-(2-fluoro-3-trifluoromethylphenyl)-4-methoxyisophthalamide] | – | – | – | > 50000 | – | – | 350
9 | COc1ccccc1NC(=O)c1cc(C(N)=O)ccc1OC [Compound 1-3-10, 4-methoxy-3-N-(2-methoxyphenyl)isophthalamide] | 46 | – | – | > 50000 | – | – | 760
10 | COc1ccc(C(N)=O)cc1C(=O)Nc1ccccc1F [Compound 1-3-12, 3-N-(2-fluorophenyl)-4-methoxyisophthalamide] | 27 | – | – | > 50000 | – | – | 2540
11 | COc1ccc(C(N)=O)cc1C(=O)Nc1cc(C(F)(F)F)ccc1Cl [Compound 1-3-16, 3-N-(2-chloro-5-trifluoromethylphenyl)-4-methoxyisophthalamide] | 80 | – | – | > 50000 | – | – | 4600
12 | COc1ccc(C(N)=O)cc1C(=O)Nc1cc(C)c(F)cc1Cl [Compound 1-3-17, 3-N-(2-chloro-4-fluoro-5-methylphenyl)-4-methoxyisophthalamide] | 80 | – | – | > 25000 | – | – | 1200
13 | COc1cc(NC(=O)c2cc(C(N)=O)ccc2OC)cc(OC)c1 [Compound 1-3-18, 3-N-(3,5-dimethoxyphenyl)-4-methoxyisophthalamide] | 29 | – | – | > 50000 | – | – | 1250
14 | COc1ccc(C(N)=O)cc1C(=O)Nc1ccc(C(F)(F)F)cc1 [Compound 1-3-21, 4-methoxy-3-N-(4-trifluoromethylphenyl)isophthalamide] | 71 | – | – | > 50000 | – | – | 5100
15 | COc1ccc(C(N)=O)cc1C(=O)Nc1ccccc1C [Compound 1-3-23, 4-methoxy3-N-o-tolylisophthalamide] | 27 | – | – | > 50000 | – | – | 2850
16 | COc1ccc(C(N)=O)cc1C(=O)Nc1ccc(F)cc1F [Compound 1-3-24, 3-N-(2,4-difluorophenyl)-4-methoxyisophthalamide] | 28 | – | – | > 50000 | – | – | 5190
17 | COc1ccc(C(N)=O)cc1C(=O)Nc1cccc2ncccc12 [Compound 1-3-39, 4-methoxy-3-N-quinolin-5-yl-isophthalamide] | 20 | – | – | > 25000 | – | – | 2360
18 | COc1ccc(C(N)=O)cc1C(=O)Nc1ccc(Br)cc1Cl [Compound 1-3-41, 3-N-(4-bromo-2-chlorophenyl)-4-methoxyisophthalamide] | 82 | – | – | > 50000 | – | – | 40
19 | COc1ccc(C(N)=O)cc1C(=O)Nc1ccc(Br)cc1Br [Compound 1-3-45, 3-N-(2,4-dibromophenyl)-4-methoxyisophthalamide] | 31 | – | – | > 50000 | – | – | 50
20 | COc1ccc(C(N)=O)cc1/C=C/c1ccc(OC(F)(F)F)cc1 [Compound 2-1-1, 4-methoxy-3-[(E)-2-(4-trifluoromethoxyphenyl)vinyl]benzamide] | 93 | no decreases in the body weights of the mice were observed | no findings of toxicity observed | > 100000 | 75 | 37 | 170
21 | COc1ccc(C(=O)NC2CCCC2)cc1/C=C/c1ccc(OC(F)(F)F)cc1 [Compound 2-2-1, N-cyclopentyl-4-methoxy-3-[(E)-2-(4-trifluoromethoxy-phenyl)vinyl]benzamide] | 60 | – | – | > 50000 | – | – | 3350
22 | CNC(=O)c1ccc(OC)c(/C=C/c2ccc(OC(F)(F)F)cc2)c1 [Compound 2-2-2, 4-methoxy-N-methyl-3-[(E)-2-(4-trifluoromethoxyphenyl)-vinyl]-benzamide] | 77 | – | – | > 50000 | – | – | 2270
23 | CCNC(=O)c1ccc(OC)c(/C=C/c2ccc(Cl)cc2)c1 [Compound 2-2-9, 3-[(E)-2-(4-chlorophenyl)-vinyl]-N-ethyl-4-methoxy-benzamide] | 79 | – | – | > 25000 | – | – | 1410
